# Calls of active or inactive are those of the source. No cut-off for these calls is given here.
# Legend:
# Leishmania braziliensis [1] = assay: Antiparasitic activity against Leishmania braziliensis assessed as inhibition of growth after 72 hrs at 10 uM; assay type: functional
# Leishmania braziliensis [2] = assay: Antiparasitic activity against Leishmania braziliensis assessed as inhibition of infection with mouse J774.A1 cells measured infected cells […] at 1 x 10^-9 M after 4 hrs; assay type: functional; parameters: scale not given: the % may be the effect or the level left
# Leishmania braziliensis [3] = assay: Antiparasitic activity against Leishmania braziliensis assessed as inhibition of infection with mouse J774.A1 cells measured as >10 parasites per cell at 1 x 10^-7 M after 4 hrs; assay type: functional; parameters: scale not given: the % may be the effect or the level left
# Leishmania braziliensis [4] = assay: Antiparasitic activity against Leishmania braziliensis assessed as inhibition of infection with mouse J774.A1 cells measured as >10 parasites per cell at 1 x 10^-9 M after 4 hrs; assay type: functional; parameters: scale not given: the % may be the effect or the level left
# Leishmania braziliensis [5] = assay: Antiparasitic activity against Leishmania braziliensis assessed as inhibition of infection with mouse J774.A1 cells measured as 5 to 10 parasites per cell at 1 x 10^-9 M after 4 hrs; assay type: functional; parameters: scale not given: the % may be the effect or the level left
# Leishmania braziliensis [6] = assay: Antiparasitic activity against Leishmania braziliensis assessed as inhibition of infection with mouse J774.A1 cells measured as <5 parasites per cell at 1 x 10^-9 M after 4 hrs; assay type: functional; parameters: scale not given: the % may be the effect or the level left
# J774.A1 = assay: Cytotoxicity against mouse J774.A1 cells; assay type: cell-based
# Leishmania braziliensis [7] = assay: Antiparasitic activity against Leishmania braziliensis assessed as inhibition of infection with mouse J774.A1 cells measured infected cells […] at 1 x 10^-7 M after 4 hrs; assay type: functional; parameters: scale not given: the % may be the effect or the level left
# Leishmania braziliensis [8] = assay: Antiparasitic activity against Leishmania braziliensis assessed as inhibition of growth after 72 hrs; assay type: functional, organism-based
# Leishmania braziliensis [9] = assay: Leishmanicidal activity against Leishmania braziliensis assessed as reduction in parasite migration at 10^-6 M after 30 mins by chemotactic assay; assay type: functional, organism-based
# Leishmania braziliensis [10] = assay: Antiparasitic activity against Leishmania braziliensis assessed as inhibition of infection with mouse J774.A1 cells measured attached parasites at 1 x 10^-9 M after 4 hrs; assay type: functional; parameters: scale not given: the % may be the effect or the level left
# Leishmania braziliensis [11] = assay: Antiparasitic activity against Leishmania braziliensis assessed as inhibition of infection with mouse J774.A1 cells measured as 5 to 10 parasites per cell at 1 x 10^-7 M after 4 hrs; assay type: functional; parameters: scale not given: the % may be the effect or the level left
# Leishmania braziliensis [12] = assay: Leishmanicidal activity against Leishmania braziliensis assessed as dead cells at 10^-6 M after 30 mins by chemotactic assay; assay type: functional; details: 0.5 h
# Leishmania braziliensis [13] = assay: Antiparasitic activity against Leishmania braziliensis assessed as inhibition of infection with mouse J774.A1 cells measured as >10 parasites per cell at 1 x 10^-8 M after 4 hrs; assay type: functional; parameters: scale not given: the % may be the effect or the level left
# Leishmania braziliensis [14] = assay: Antiparasitic activity against Leishmania braziliensis assessed as inhibition of infection with mouse J774.A1 cells measured attached parasites at 1 x 10^-8 M after 4 hrs; assay type: functional; parameters: scale not given: the % may be the effect or the level left
# Leishmania braziliensis [15] = assay: Antiparasitic activity against Leishmania braziliensis assessed as inhibition of infection with mouse J774.A1 cells measured as <5 parasites per cell at 1 x 10^-7 M after 4 hrs; assay type: functional; parameters: scale not given: the % may be the effect or the level left
# Leishmania braziliensis [16] = assay: Antiparasitic activity against Leishmania braziliensis assessed as inhibition of infection with mouse J774.A1 cells measured as <5 parasites per cell at 1 x 10^-8 M after 4 hrs; assay type: functional; parameters: scale not given: the % may be the effect or the level left
# Leishmania braziliensis [17] = assay: Antiparasitic activity against Leishmania braziliensis assessed as inhibition of infection with mouse J774.A1 cells measured as 5 to 10 parasites per cell at 1 x 10^-8 M after 4 hrs; assay type: functional; parameters: scale not given: the % may be the effect or the level left
# Leishmania braziliensis [18] = assay: Antiparasitic activity against Leishmania braziliensis assessed as inhibition of infection with mouse J774.A1 cells measured attached parasites at 1 x 10^-7 M after 4 hrs; assay type: functional; parameters: scale not given: the % may be the effect or the level left
# [19] = Selectivity index, ratio of IC50 for mouse J774.A1 cells to IC50 for Leishmania braziliensis; assay type: toxicity, cell-based; details: J774.A1 cells versus Leishmania braziliensis, read-out: Ratio IC50
# Leishmania braziliensis [20] = assay: Antiparasitic activity against Leishmania braziliensis assessed as inhibition of infection with mouse J774.A1 cells measured infected cells […] at 1 x 10^-8 M after 4 hrs; assay type: functional; parameters: scale not given: the % may be the effect or the level left
# Leishmania braziliensis [21] = assay: Antiparasitic activity against Leishmania braziliensis assessed as inhibition of infection with mouse J774.A1 cells measured as 5 to 10 parasites per cell at 1 uM after 4 hrs; assay type: functional; parameters: scale not given: the % may be the effect or the level left
# Leishmania braziliensis [22] = assay: Antiparasitic activity against Leishmania braziliensis assessed as inhibition of infection with mouse J774.A1 cells measured as >10 parasites per cell at 1 uM after 4 hrs; assay type: functional; parameters: scale not given: the % may be the effect or the level left
# Leishmania braziliensis [23] = assay: Antiparasitic activity against Leishmania braziliensis assessed as inhibition of infection with mouse J774.A1 cells measured attached parasites at 1 uM after 4 hrs; assay type: functional; parameters: scale not given: the % may be the effect or the level left
# Leishmania braziliensis [24] = assay: Antiparasitic activity against Leishmania braziliensis assessed as inhibition of infection with mouse J774.A1 cells measured infected cells at 1 uM after 4 hrs; assay type: functional; parameters: scale not given: the % may be the effect or the level left
# Leishmania braziliensis [25] = assay: Antiparasitic activity against Leishmania braziliensis assessed as inhibition of infection with mouse J774.A1 cells measured as <5 parasites per cell at 1 uM after 4 hrs; assay type: functional; parameters: scale not given: the % may be the effect or the level left
# Leishmania braziliensis [26] = assay: Leishmanicidal activity against Leishmania braziliensis assessed as dead cells at 10^-12 to 10^-7 M after 30 mins by chemotactic assay; assay type: functional, organism-based
structure (smiles),measurement,setting,value
C=C(C)[C@@H]1CC[C@]2(C(=O)O)CC[C@]3(C)[C@H](CC[C@@H]4[C@@]5(C)CCC(=O)C(C)(C)[C@@H]5CC[C@]43C)[C@@H]12 [BETUNOLIC ACID],inhibition at 10 µM,Leishmania braziliensis [1],50%
CC(C)[C@@]12CC[C@]3(C=O)CC[C@]4(C)C(=C31)C(C[C@@H]1[C@@]3(C)CC[C@H](O)C(C)(C)[C@@H]3CC[C@]14C)n1c(=O)n(C)c(=O)n12 (some centres undefined),Activity,Leishmania braziliensis [2],14.4%
same,Activity,Leishmania braziliensis [3],5.09%
same,Activity,Leishmania braziliensis [4],6.83%
same,Activity,Leishmania braziliensis [5],15.93%
same,Activity,Leishmania braziliensis [6],77.41%
same,IC50,J774.A1,> 10 µM
same,Activity,Leishmania braziliensis [7],12.7%
same,IC50,Leishmania braziliensis [8],2.06 µM
same,Activity,Leishmania braziliensis [9],Active
same,Activity,Leishmania braziliensis [10],50%
same,Activity,Leishmania braziliensis [11],5.09%
same,inhibition at 1 µM,Leishmania braziliensis [12],25%
same,Activity,Leishmania braziliensis [13],7.29%
same,Activity,Leishmania braziliensis [14],56.7%
same,Activity,Leishmania braziliensis [15],84.09%
same,Activity,Leishmania braziliensis [16],90.02%
same,Activity,Leishmania braziliensis [17],9.73%
same,Activity,Leishmania braziliensis [18],62.3%
same,selectivity ratio,[19],> 5
same,Activity,Leishmania braziliensis [20],13.7%
C[C@@H]1[C@H](O)[C@@H](C)/C=C/C=C/C=C/C=C/C=C/C=C/C=C/[C@H](O[C@@H]2O[C@H](C)[C@@H](O)[C@H](N)[C@@H]2O)C[C@@H]2O[C@](O)(C[C@@H](O)C[C@@H](O)[C@H](O)CC[C@@H](O)C[C@@H](O)CC(=O)O[C@H]1C)C[C@H](O)[C@H]2C(=O)O [AMPHOTERICIN B],Activity,Leishmania braziliensis [21],21.45%
same,Activity,Leishmania braziliensis [22],7.15%
same,Activity,Leishmania braziliensis [23],41.3%
same,Activity,Leishmania braziliensis [24],15.2%
same,Activity,Leishmania braziliensis [25],71.51%
CC(C)[C@@]12CC[C@]3(COC=O)CC[C@]4(C)C(=C31)C(C[C@@H]1[C@@]3(C)CC[C@H](OC=O)C(C)(C)[C@@H]3CC[C@]14C)n1c(=O)n(C)c(=O)n12 (some centres undefined),Activity,Leishmania braziliensis [2],10.3%
same,Activity,Leishmania braziliensis [26],Dose-dependent effect
same,Activity,Leishmania braziliensis [3],3.86%
same,Activity,Leishmania braziliensis [4],6.34%
same,Activity,Leishmania braziliensis [5],15.86%
same,Activity,Leishmania braziliensis [6],76.14%
same,IC50,J774.A1,> 10 µM
same,Activity,Leishmania braziliensis [7],17.7%
same,IC50,Leishmania braziliensis [8],0.25 µM
same,Activity,Leishmania braziliensis [10],55%
same,Activity,Leishmania braziliensis [11],25.15%
same,inhibition at 1 µM,Leishmania braziliensis [12],25%
same,Activity,Leishmania braziliensis [13],4.78%
same,Activity,Leishmania braziliensis [14],46.6%
same,Activity,Leishmania braziliensis [15],61.91%
same,Activity,Leishmania braziliensis [16],59.79%
same,Activity,Leishmania braziliensis [17],31.09%
same,Activity,Leishmania braziliensis [18],59%
same,selectivity ratio,[19],> 40
same,Activity,Leishmania braziliensis [20],13.4%
C=C(C)[C@@H]1CC[C@]2(/C=N/O)CC[C@]3(C)[C@H](CC[C@@H]4[C@@]5(C)CC[C@H](O)C(C)(C)[C@@H]5CC[C@]43C)[C@@H]12,IC50,J774.A1,> 10 µM
same,IC50,Leishmania braziliensis [8],4.12 µM
same,Activity,Leishmania braziliensis [9],Active
same,inhibition at 1 µM,Leishmania braziliensis [12],66%
same,inhibition at 10 µM,Leishmania braziliensis [1],50%
same,selectivity ratio,[19],> 2.5
CC(=O)OC[C@]12CC[C@]3(C(C)C)C1=C1C(C[C@@H]4[C@@]5(C)CC[C@H](OC(C)=O)C(C)(C)[C@@H]5CC[C@@]4(C)[C@]1(C)CC2)n1c(=O)n(C)c(=O)n13 (some centres undefined),inhibition at 10 µM,Leishmania braziliensis [1],50%
"C=C(C)[C@@H]1CC[C@]2(/C=N/O)CC[C@]3(C)[C@H](CC[C@@H]4[C@@]5(C)CC/C(=N\O)C(C)(C)[C@@H]5CC[C@]43C)[C@@H]12 [BETULIN-3,28-DIOXIME]",Activity,Leishmania braziliensis [26],Dose-dependent effect
same,IC50,J774.A1,> 10 µM
same,IC50,Leishmania braziliensis [8],3.35 µM
same,inhibition at 1 µM,Leishmania braziliensis [12],25%
same,inhibition at 10 µM,Leishmania braziliensis [1],50%
same,selectivity ratio,[19],> 3

# — ChEMBL document CHEMBL3352506, “Betulin derivatives impair Leishmania braziliensis viability and host-parasite interaction” (Bioorg Med Chem, 2014)
